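Method: 48-hour compound exposure of cells in 96-well plates, five concentrations, linear interpolation of endpoints. At the GI50, growth is halved.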 The source made the active and inactive calls. No stated cut-off is given here; in the data, active = GI50 up to about 1.1 µM and inactive = higher. Where only a bound is given, the exact number is not on record here.

Experiment in all cases: DTP human tumour cell line panel, 48 h
Assay [1] has as its system DLD-1.
Assay [2] has as its system HOP-18.
The subject of assay [3] is SNB-78.
Assay [4] has as its system DMS-273.
Assay [5] concerns DMS-114.
Assay [6] deals with LXFL 529.
The test system of assay [7] is KM-20L2.
Assay [8] deals with XF498.
Assay [9] deals with RXF 631.

Regarding `CC1(C)OCN(c2ccc(N3CCOCC3)cc2)Cn2c1nc1ccccc12`, the GI50 in assay [1] was > 100 µM (inactive); in assay [2], > 100 µM (inactive); in assay [3] it was > 100 µM (inactive); in [4], 80.9 µM (inactive); in [5] it was > 100 µM (inactive); in assay [6], > 100 µM (inactive). Moreover, in assay [7], the GI50 is > 100 µM (inactive).
Take `C/C(CN1C(=O)c2ccccc2C1=O)=N\NS(=O)(=O)c1ccc(Cl)cc1`: the GI50 in [1], in [2], in assay [3], in assay [8], in assay [4] and in assay [9] was > 100 µM (inactive) throughout. Also, the GI50 in assay [6] and in assay [7] was > 100 µM (inactive) in each case.
For the compound `COc1c(C2=NC(C(C)C)CO2)ccc2ccccc12` (stereo not given), the GI50 in assay [1] was 16.1 µM (inactive); in [3] it was 79.4 µM (inactive); in [8] it was 30.4 µM (inactive); in [4] it was 23 µM (inactive); in [9], 39.5 µM (inactive); in assay [6], 19.2 µM (inactive). The GI50 in [7] is 42.1 µM (inactive).
In the case of `CC(C)[C@@H]1C=C(c2ccccc2)c2ccccc2C1C(C#N)(C#N)C(C)C` (stereo not given in full), the GI50 was > 100 µM (inactive) in assay [1]; > 100 µM (inactive) in [2]; > 100 µM (inactive) in assay [3]; 45 µM (inactive) in assay [8]; 48.6 µM (inactive) in assay [4]; 97.7 µM (inactive) in [5]. The GI50 in [6] and in assay [7] was > 100 µM (inactive) each time.
Regarding `Cc1ccc(Nc2nc3c(s2)C(=O)c2ccccc2C3=O)cc1`, the GI50 in assay [1] was 2.07 µM (inactive); in assay [2], 1.13 µM (inactive); in [3], 2.49 µM (inactive); in [8] it was 1.94 µM (inactive); in assay [4], 1.95 µM (inactive); in assay [9] it was 1.95 µM (inactive). Moreover, the results for the GI50 in assay [5], in assay [6] and in [7] were 1.52 µM (inactive), 1.63 µM (inactive) and 17.5 µM (inactive), respectively.
Regarding `Cc1nc2ccccc2c(=O)n1/N=C(\N=N\c1cc(Cl)ccc1Cl)c1cccc(-c2ccco2)c1`, the GI50 was 87.9 µM (inactive) in assay [1]; > 100 µM (inactive) in assay [2]; 63.2 µM (inactive) in assay [4]; > 100 µM (inactive) in assay [9]; 41.4 µM (inactive) in assay [5].
With `FC(F)(F)c1nc2ccc3[nH]c4c(-c5ccccc5)nccc4c3c2[nH]1`, the GI50 in assay [1] was > 100 µM (inactive); in assay [2] it was > 100 µM (inactive); in [3], > 100 µM (inactive); in assay [8], > 100 µM (inactive); in assay [9], > 100 µM (inactive); in assay [5], > 45.4 µM (inactive). The GI50 in [6] and in [7] was > 100 µM (inactive) each time.
In the case of `CC(=O)C1C(=O)C(=O)N(CCN2C(=O)C(=O)C(C(C)=O)C2=O)C1=O` (stereo not given), the GI50 in [2], in assay [8], in assay [4], in [9], in assay [5] and in [6] was > 100 µM (inactive) each time. Further, the GI50 in assay [7] is > 100 µM (inactive).
On to `CCc1c(OC(C)=O)c2c(NC3OC(COC(C)=O)C(OC(C)=O)C(OC(C)=O)C3OC(C)=O)nc(OC)nc2oc1=O` (stereo not given), for which the GI50 in assay [1], in [2], in [3], in [8], in assay [4] and in [5] was > 100 µM (inactive) in each case. Further, the GI50 in assay [6] and in [7] was > 100 µM (inactive) each time.
As for `CC1(Cl)C(=O)NC(=O)N([C@H]2C[C@H](O)[C@@H](CO)O2)C1N=[N+]=[N-]` (stereo not given in full), the GI50 in assay [1], in assay [2], in assay [3], in [8], in assay [4] and in [9] was > 100 µM (inactive) each time. Besides, the GI50 in [5] was > 94.8 µM (inactive); in [6], > 100 µM (inactive); in assay [7] it was > 100 µM (inactive).
On to `CC(=O)OC12CCCCC1C1(CCCC1)NC2=O` (stereo not given), for which the GI50 in assay [1], in assay [2], in assay [3], in assay [8], in assay [5] and in assay [6] was > 100 µM (inactive) in each case. Moreover, the GI50 in [7] was > 100 µM (inactive).
With `CCN(CC)CCC(=O)Nc1ccc2c(c1)C(=O)c1ccc(NC(=O)CCN(CC)CC)cc1C2=O`, the GI50 in assay [1] is 1.81 µM (inactive); in [2], 0.475 µM (active); in assay [3] it was 5.96 µM (inactive); in assay [4], 1.19 µM (inactive); in assay [5], 3.21 µM (inactive); in assay [6] it was 3.11 µM (inactive). Also, the GI50 in assay [7] was 14.6 µM (inactive).
As to `CC(C)N(C(=O)C12C3C4C5C3C1(C(=O)O)C5C42)C(C)C` (stereo not given), the GI50 in [1], in assay [3], in assay [8], in assay [4], in [9] and in assay [5] was > 100 µM (inactive) in each case. Besides, the GI50 in [6] and in [7] was > 100 µM (inactive) in each case.
As to `Cc1ccc(NC(=O)C(=O)C2NC(=S)NC2=O)c([N+](=O)[O-])c1` (stereo not given), the GI50 in assay [1], in assay [2], in [3], in assay [8], in [4] and in [5] was > 100 µM (inactive) in each case. Also, the GI50 in assay [6] and in [7] was > 100 µM (inactive) in each case.
`NS(=O)(=O)c1ccc(NC(=O)c2cccc3c(=O)c4ccccc4[nH]c23)cc1`: the GI50 in [1] is > 100 µM (inactive); in assay [2], > 100 µM (inactive); in [3], 49.3 µM (inactive); in assay [8], 11.5 µM (inactive); in assay [4], 70.1 µM (inactive); in assay [5], 74.8 µM (inactive). Moreover, the GI50 was 30.6 µM (inactive) in assay [6] and 38.6 µM (inactive) in assay [7].
`Cc1ccccc1-n1c2nc(=O)n(C)c(=O)c-2nc2ccccc21`: the GI50 in assay [1] was 16.7 µM (inactive); in [2], 10.5 µM (inactive); in assay [3], 18.6 µM (inactive); in assay [8], 17.5 µM (inactive); in assay [4], 10.9 µM (inactive); in [9], 14.6 µM (inactive). In addition, the GI50 in [5] is 4.9 µM (inactive); in assay [6], 12.5 µM (inactive); in assay [7] it was 7.35 µM (inactive).
On to `O=C1[C@H]2ON(c3ccccc3)C(c3ccccc3)[C@H]2C(=O)N1c1ccc(Cc2ccc(N3C(=O)[C@@H]4ON(c5ccccc5)C(c5ccccc5)[C@@H]4C3=O)cc2)cc1` (stereo not given in full), for which the GI50 in assay [1], in assay [2], in assay [3], in assay [4], in [9] and in assay [5] was > 100 µM (inactive) throughout. In addition, the GI50 in [6] and in [7] was > 100 µM (inactive) in each case.
As for `COc1cccc(N2C(=O)[C@H]3[C@H]4CC(C(C)(C)C)CC[C@H]4c4c([nH]c5ccccc45)[C@H]3C2=O)c1` (stereo not given in full), the GI50 is 22.5 µM (inactive) in assay [1]; 14.5 µM (inactive) in assay [3]; 18.3 µM (inactive) in assay [4]; 17.6 µM (inactive) in assay [9]; 17.7 µM (inactive) in assay [5]; 20 µM (inactive) in [6].
For the compound `O=[N+]([O-])c1nccn1COCCI`, the GI50 in [1], in [3], in assay [8], in [4], in assay [5] and in assay [6] was > 100 µM (inactive) in each case. Moreover, in assay [7], the GI50 was > 100 µM (inactive).
As to `COc1ccc(CC2NCCc3c2[nH]c2ccccc32)cc1` (stereo not given), the GI50 is > 100 µM (inactive) in assay [1]; 70.6 µM (inactive) in assay [3]; 16.9 µM (inactive) in [8]; 26.5 µM (inactive) in assay [4]; 25.3 µM (inactive) in assay [9]; 33.1 µM (inactive) in [5]. In addition, the values for the GI50 in assay [6] and in [7] were 62.4 µM (inactive) and 33.7 µM (inactive), respectively.
As to `O=C(/C(=C/c1ccccc1)c1ccccc1)N1c2ccccc2CC1c1c[nH]c2ccccc12` (stereo not given), the GI50 in assay [1] is 53.2 µM (inactive); in [3], 9.2 µM (inactive); in [8], 3.05 µM (inactive); in assay [4], 7.83 µM (inactive); in assay [5], 5.7 µM (inactive); in [6], 8.3 µM (inactive). In assay [7], the GI50 is 26.8 µM (inactive).
With `CC1CCC2(OCCO2)[C@]2(C)CC(O)C(=O)C=C12` (stereo not given in full), the GI50 in assay [1], in assay [2], in assay [8], in assay [4], in [5] and in assay [6] was > 100 µM (inactive) throughout.

As a reminder, the GI50 is the concentration that inhibits growth by half.
